Results from patent US8263777B2, “Aminopyrazole triazolothiadiazole inhibitor of c-Met protein kinase” (Vertex Pharmaceuticals Incorporated, priority 2010, dated 2012).
“And” between values parts separate entries of the source, which are not always exact repeats. Identical values can stand only once.

What was measured:
c-Met [1] = molecular target: T1, c-Met (Homo sapiens, UniProt P08581); assay: c-Met kinase inhibition assay (radiometric, 33P-ATP, polyE4Y); type: biochemical; conditions: 0.5 nM c-Met, 35 μM ATP, competitive tight-binding fit
T1 sequence (P08581 25-1390): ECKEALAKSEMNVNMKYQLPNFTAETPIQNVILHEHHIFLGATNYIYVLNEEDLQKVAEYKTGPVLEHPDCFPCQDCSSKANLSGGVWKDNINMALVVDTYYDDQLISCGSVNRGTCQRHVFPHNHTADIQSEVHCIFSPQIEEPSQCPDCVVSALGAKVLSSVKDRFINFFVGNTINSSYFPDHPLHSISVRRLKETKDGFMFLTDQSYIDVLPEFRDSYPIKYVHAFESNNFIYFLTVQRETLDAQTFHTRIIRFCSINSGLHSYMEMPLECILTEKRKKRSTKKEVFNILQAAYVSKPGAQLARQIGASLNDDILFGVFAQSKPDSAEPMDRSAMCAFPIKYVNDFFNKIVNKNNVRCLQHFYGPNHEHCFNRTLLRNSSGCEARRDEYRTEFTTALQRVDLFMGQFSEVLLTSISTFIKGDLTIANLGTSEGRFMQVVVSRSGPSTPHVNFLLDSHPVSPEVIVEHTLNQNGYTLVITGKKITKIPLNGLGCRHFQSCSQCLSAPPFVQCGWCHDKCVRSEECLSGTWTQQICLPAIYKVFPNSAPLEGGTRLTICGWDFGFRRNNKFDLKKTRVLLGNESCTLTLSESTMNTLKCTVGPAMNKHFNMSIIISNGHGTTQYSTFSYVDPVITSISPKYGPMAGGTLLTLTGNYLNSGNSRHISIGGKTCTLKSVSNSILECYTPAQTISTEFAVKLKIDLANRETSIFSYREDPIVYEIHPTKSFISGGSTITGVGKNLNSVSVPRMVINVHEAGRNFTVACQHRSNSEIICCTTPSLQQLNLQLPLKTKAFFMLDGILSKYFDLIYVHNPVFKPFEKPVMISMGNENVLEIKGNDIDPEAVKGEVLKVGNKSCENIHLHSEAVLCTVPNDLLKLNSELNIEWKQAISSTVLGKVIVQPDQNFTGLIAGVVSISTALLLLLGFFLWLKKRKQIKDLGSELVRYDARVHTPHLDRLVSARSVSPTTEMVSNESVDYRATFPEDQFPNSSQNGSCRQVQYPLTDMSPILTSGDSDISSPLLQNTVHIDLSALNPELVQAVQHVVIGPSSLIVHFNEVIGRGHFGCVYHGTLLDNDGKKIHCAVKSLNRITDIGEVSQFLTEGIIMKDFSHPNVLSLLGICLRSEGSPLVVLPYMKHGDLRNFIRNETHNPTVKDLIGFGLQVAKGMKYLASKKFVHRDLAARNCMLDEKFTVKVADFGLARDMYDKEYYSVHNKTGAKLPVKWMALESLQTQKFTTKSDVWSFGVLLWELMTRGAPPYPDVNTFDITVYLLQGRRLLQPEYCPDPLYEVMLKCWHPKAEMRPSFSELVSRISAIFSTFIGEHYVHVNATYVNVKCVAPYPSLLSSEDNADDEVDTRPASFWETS
Procedure: Compound 1 was screened for its ability to inhibit c-Met kinase using a standard radiometric assay. Briefly, in this kinase assay the transfer of the terminal ^33P-phosphate in ^33P-ATP to substrate polyE4Y is interrogated. The assay was carried out in 96-well plates to a final volume of 100 μL per well containing 0.5 nM c-Met, 100 mM HEPES (pH 7.5), 10 mM MgCl2, 25 mM NaCl, 0.01% BSA, 1 mM DTT, 0.5 mg/mL polyE4Y, and 35 μM ATP. Accordingly, Compound 1 was dissolved in DMSO to make a 10 mM initial stock solution. Serial dilutions in DMSO were then made to obtain the final solutions for the assay. A 1.5 μL aliquot of DMSO or inhibitor in DMSO was added to each well, followed by the addition of ^33P-ATP, and finally the addition of c-Met and polyE4Y (obtained from Sigma). After 20 min, the reaction was quenched with 50 μL of 30% trichloroacetic acid (TCA) containing 4 mM ATP. The reaction mixture was transferred to the 0.66 mm GF filter plates (Corning) and washed three times with 5% TCA. Following the addition of 50 μL of Ultimate Gold™ high efficiency scintillant (Packard Bioscience), the samples were counted in a Packard TopCount NXT Microplate Scintillation and Luminescence Counter (Packard BioScience). The Ki values were calculated using Microsoft Excel Solver macros to fit the data to the kinetic model for competitive tight-binding inhibition.

[2] = test system: SNU-5 gastric cancer cells; assay: Inhibition of tumor growth of subcutaneously implanted SNU-5 cells in SCID mice; type: in vivo; conditions: for SNU-5 tumor weight at study termination, Mean: Day 38, group mean; for SNU-5 tumor weight at study termination, Mean / SNU-5 tumor weight at study termination, individual animal: in mg (unit assumed); for SNU-5 tumor weight at study termination, individual animal: Day 38, one value per animal ID, listed as Compound 3; for percent tumor weight reduction vs vehicle control: P<0.002
Procedure: SNU-5 cells (CRL-5973, American Type Culture Collection, Manassas, Va.) were cultured in ISCOVE's Modified Dulbecco's Medium (IMDM) (Invitrogen, Carlsbad, Calif.) supplemented with 10% fetal bovine serum (FBS) (Hyclone, Logan, Utah), 100 units/mL of penicillin, […] of streptomycin (Invitrogen, Carlsbad, Calif.), and 2 mM L-glutamine. Cells were cultured for fewer than 4 passages prior to implantation. Female SCID mice (Fox Chase SCID, CB-17, mice weighing 17 to 19 g obtained from Charles River Laboratories, Wilmington, Mass.) were injected subcutaneously (s.c.) with 5×10^6 SNU-5 cells into the right dorsal axillary region on Day 0. Treatments were initiated on Day 25 when the average tumor volume reached approximately 358 mm^3.
Compound 1, formulated in a vehicle containing 30% (w/v) Propylene Glycol and 10% Solutol (Sigma-Aldrich, St Louis, Mo.) as a suspended homogenous form, was administered orally (p.o.) once daily (QD) at total daily doses of 3, 10, and 30 mg/kg/day for 14 days. Tumor volumes (calculated using the ellipsoid formula, (length×width^2)/2, where length and width represented the largest and smallest dimensions of the tumor, respectively) were recorded for two weeks after the initiation of treatment. The study was terminated 38 days after tumor implantation.

[3] = test system: A549 cells (A549HGF-lm1115); assay: Inhibition of tumor metastasis to the lungs, subcutaneous A549HGF tumors in SCID mice; type: in vivo; conditions: for Luminescence of homogenized lung tissue, Mean / Luminescence of homogenized lung tissue, individual animal: study termination; for Luminescence of homogenized lung tissue, Mean: group mean; for Luminescence of homogenized lung tissue, individual animal: one value per animal ID
Procedure: Compound 1 was investigated for its ability to inhibit the metastasis of subcutaneously implanted tumors to the lungs of severe combined immunodeficient (SCID) mice. Accordingly, A549 cells (A549HGF-lm1115, transfected with hepatocyte growth factor, luciferase, and green fluorescent protein) were cultured in RPMI1640 medium (Invitrogen, Carlsbad, Calif.) supplemented with 10% fetal bovine serum (FBS) (Hyclone, Logan, Utah), 100 units/mL of penicillin, […] of streptomycin (Invitrogen, Carlsbad, Calif.), and 2 mM L-glutamine for fewer than 4 passages prior to implantation. 3-(Difluoro(quinolin-6-yl)methyl)-N-(1-methyl-1H-pyrazol-4-yl)-[1,2,4]triazolo[3,4-b][1,3,4]thiadiazol-6-amine (Compound 1) was formulated in a vehicle containing 0.5% (w/v) methylcellulose (Sigma-Aldrich, St Louis, Mo.) and 0.1% (v/v) Tween 80™ as a dissolved homogenous form, which was prepared fresh each day and administered to mice via oral gavage at a dosing volume of 10 mL/kg.
Female SCID mice were injected subcutaneously (s.c.) with 5×10^6 A549HGF cells into the right dorsal axillary region on Day 0. Treatments were initiated on the same day by oral administration (p.o.) of Compound 1 once daily (QD) at total daily doses of 30 and 60 mg/kg/day for 22 days. Ectopic tumor measurements were recorded twice a week for 3 weeks after the initiation of treatment.
In order to evaluate the anti-metastatic potential of Compound 1, at the termination of the study all animal lung tissues were harvested and lysed by homogenization for ex vivo quantification via luciferase luminescence.

c-Met [4] = molecular target: T1, c-Met; assay: Inhibition of c-Met activity in Snu5 gastric carcinoma cells (Snu5-AP1-Luc-Pest luciferase); type: cell-based; parameters: is a human gastric carcinoma known to overexpress c-Met, which is constitutively active; host or cells: Snu5 human gastric carcinoma cells transduced with a 6xAP1-luciferase-PEST reporter (Snu5-AP1-Luc-Pest); conditions: 6 hours, luciferase luminescence
Text: Compound 1 was also screened for its ability to inhibit the Luciferase-induced signal in an engineered Snu5 cell line. Snu5 [obtained from American Type Culture Collection (Catalog number CRL-5973)] is a human gastric carcinoma known to overexpress c-Met, which is constitutively active. The cell line was transduced with the retrovirus, pCLPCX, which contains a genetic construct consisting of 6×AP1 promoter response elements and a luciferase gene having a C-terminal PEST sequence (proteolytic signal from mouse ornithine decarboxylase, which reduces the half-life of the luciferase). The constitutively active c-Met activates cellular pathways (principally MAP kinase), resulting in AP-1-induced transcription of luciferase-PEST and translation into the final product, the activity of which is quantifiable as a chemiluminescent readout upon the addition of luciferin (Steady-Glo from Promega.). Residual luminescence is strongly correlated to the inhibition of c-Met. A stable cell line was obtained by selecting the new cell line (Snu5-AP1-Luc-Pest) with puromycin. […] The Snu5-AP1-Luc-Pest cells were counted and diluted to 200,000-cells/mL solution. […] The plate was read on a 1450 Microbeta Liquid Scintillation and Luminescence Counter (Perkin-Elmer).

For Cn1cc(Nc2nn3c(C(F)(F)c4ccc5ncccc5c4)nnc3s2)cn1 [Compound 1, 3-(difluoro(quinolin-6-yl)methyl)-N-(1-methyl-1H-pyrazol-4-yl)-[1,2,4]triazolo[3,4-b][1,3,4]thiadiazol-6-amine], the Ki (c-Met [1]) was < 0.02 µM, the SNU-5 tumor volume ([2]; 3 mg/kg/day p.o. QD, Day 25 (treatment start), mean ± standard error) was 356.1 ± 24.5 mm^3 and the SNU-5 tumor volume ([2]; 3 mg/kg/day p.o. QD, Day 28, mean ± standard error) was 432.6 ± 31.2 mm^3. The SNU-5 tumor volume ([2]; 3 mg/kg/day p.o. QD, Day 31, mean ± standard error) was 511.9 ± 36.3 mm^3, the SNU-5 tumor volume ([2]; 3 mg/kg/day p.o. QD, Day 35, mean ± standard error) was 587.8 ± 39.5 mm^3 and the SNU-5 tumor volume ([2]; 3 mg/kg/day p.o. QD, Day 38, mean ± standard error) was 670.4 ± 46.2 mm^3. For the same compound, the “SNU-5 tumor weight at study termination, Mean” value (“SNU-5 tumor weight … Mean” for short) ([2]; 3 mg/kg/day) was 619.9, the “SNU-5 tumor weight at study termination, individual animal” value (from here on “SNU-5 tumor weight … individual animal”) ([2]; 3 mg/kg/day) was 619 and 505 and 525 and 485 and 605 and 655 and 851 and 770 and 405 and 790 and 938 and 508 and 368 and 679 and 596 and the “percent tumor weight reduction vs vehicle control” value (shortened to “percent tumor weight reduction”) ([2]; 3 mg/kg/day) was 34.5%. For the same compound, the SNU-5 tumor volume ([2]; 10 mg/kg/day p.o. QD, Day 25 (treatment start), mean ± standard error) was 358.0 ± 17.1 mm^3, the SNU-5 tumor volume ([2]; 10 mg/kg/day p.o. QD, Day 28, mean ± standard error) was 354.2 ± 21.7 mm^3 and the SNU-5 tumor volume ([2]; 10 mg/kg/day p.o. QD, Day 31, mean ± standard error) was 381.8 ± 25.6 mm^3. For the same compound, the SNU-5 tumor volume ([2]; 10 mg/kg/day p.o. QD, Day 35, mean ± standard error) was 406.6 ± 23.4 mm^3, the SNU-5 tumor volume ([2]; 10 mg/kg/day p.o. QD, Day 38, mean ± standard error) was 453.9 ± 27.3 mm^3 and the “SNU-5 tumor weight … Mean” value ([2]; 10 mg/kg/day) was 385.7. For the same compound, the “SNU-5 tumor weight … individual animal” value ([2]; 10 mg/kg/day) was 319 and 476 and 358 and 469 and 279 and 660 and 418 and 400 and 387 and 410 and 349 and 275 and 305 and 371 and 309, the “percent tumor weight reduction” value ([2]; 10 mg/kg/day) was 59.3% and the SNU-5 tumor volume ([2]; 30 mg/kg/day p.o. QD, Day 25 (treatment start), mean ± standard error) was 359.5 ± 35.1 mm^3. The SNU-5 tumor volume ([2]; 30 mg/kg/day p.o. QD, Day 28, mean ± standard error) was 281.3 ± 28.7 mm^3, the SNU-5 tumor volume ([2]; 30 mg/kg/day p.o. QD, Day 31, mean ± standard error) was 256.5 ± 23.6 mm^3 and the SNU-5 tumor volume ([2]; 30 mg/kg/day p.o. QD, Day 35, mean ± standard error) was 255.7 ± 21.1 mm^3. For the same compound, the SNU-5 tumor volume ([2]; 30 mg/kg/day p.o. QD, Day 38, mean ± standard error) was 273.4 ± 24.2 mm^3, the “SNU-5 tumor weight … Mean” value ([2]; 30 mg/kg/day) was 251.2 and the “SNU-5 tumor weight … individual animal” value ([2]; 30 mg/kg/day) was 180 and 173 and 260 and 420 and 250 and 156 and 350 and 327 and 150 and 246. The “tumor regression by tumor volume analysis” value ([2]; 30 mg/kg/day, P<0.001) was −23.9%, the “percent tumor weight reduction” value ([2]; 30 mg/kg/day) was 73.5% and the anti-tumor activity ([2]; all three dose levels tested (3, 10, 30 mg/kg/day)) was “significant and dose-dependent anti-tumor activity”. For the same compound, the “Luminescence of homogenized lung tissue, Mean” value ([3]; 30 mg/kg/day) was 12740.8 counts, the “Luminescence of homogenized lung tissue, individual animal” value ([3]; 30 mg/kg/day) was 3890 counts and 5270 counts and 2270 counts and 2620 counts and 17200 counts and 21300 counts and 6430 counts and 4340 counts and 65400 counts and 2230 counts and 16300 counts and 5640 counts and the “formation of lung metastases” value ([3]; 60 mg/kg/day compared to vehicle controls, p<0.02) was “significantly inhibits”. For the same compound, the “Luminescence of homogenized lung tissue, Mean” value ([3]; 60 mg/kg/day, p<0.02 vs vehicle) was 6672.3±1986.1 counts and 6672.3 counts, the “Luminescence of homogenized lung tissue, individual animal” value ([3]; 60 mg/kg/day) was 2170 counts and 1480 counts and 2540 counts and 19300 counts and 21100 counts and 3800 counts and 16500 counts and 1440 counts and 2620 counts and 2920 counts and 5540 counts and 4860 counts and 2470 counts and the “change in primary A549 tumor cell growth at the site of implantation vs vehicle” value ([3]; 30 or 60 mg/kg/day p.o. QD, 22 days) was “no significant change”. The IC50 (c-Met [4]) was < 0.02 µM.
